Assay results: PMC3540847 (Journal of Lipid Research, 2012)
Structures can show the parent of a compound that is named as a salt.

What was measured:
skAsbt = target: T1, skAsbt (Leucoraja erinaceus, UniProt I4CJQ7); test: competition of 3H-TCA uptake, transfected COS-7 cells; type: cell-based; details: 10 μM 3H-TCA, Na+ medium, 10 min
T1 sequence (I4CJQ7 1-393): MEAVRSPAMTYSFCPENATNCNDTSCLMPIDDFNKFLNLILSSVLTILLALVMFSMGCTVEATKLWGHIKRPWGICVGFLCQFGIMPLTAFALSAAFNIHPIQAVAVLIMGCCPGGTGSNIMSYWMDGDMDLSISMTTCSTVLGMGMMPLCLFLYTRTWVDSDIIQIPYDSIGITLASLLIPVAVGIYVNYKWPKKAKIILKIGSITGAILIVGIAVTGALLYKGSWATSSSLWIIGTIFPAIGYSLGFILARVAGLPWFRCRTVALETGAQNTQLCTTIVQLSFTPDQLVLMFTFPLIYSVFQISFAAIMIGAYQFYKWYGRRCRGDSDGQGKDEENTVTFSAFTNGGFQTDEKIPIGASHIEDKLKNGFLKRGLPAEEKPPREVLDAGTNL

hASBT = target: T2, hASBT (Homo sapiens, UniProt Q12908); test: as above; type: cell-based; details: 10 μM 3H-TCA, Na+ medium, 10 min
T2 sequence (Q12908 1-348): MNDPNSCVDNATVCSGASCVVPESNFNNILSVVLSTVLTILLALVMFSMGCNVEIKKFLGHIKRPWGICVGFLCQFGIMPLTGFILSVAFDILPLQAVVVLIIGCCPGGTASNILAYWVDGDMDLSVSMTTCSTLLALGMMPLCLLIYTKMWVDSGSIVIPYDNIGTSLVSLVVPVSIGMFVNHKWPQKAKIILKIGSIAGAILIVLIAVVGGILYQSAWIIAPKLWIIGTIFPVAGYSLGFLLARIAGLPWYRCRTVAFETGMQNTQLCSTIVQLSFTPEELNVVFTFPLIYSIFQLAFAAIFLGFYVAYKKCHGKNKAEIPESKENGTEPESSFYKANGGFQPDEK

SMILES	inhibition of uptake at 100 μM (skAsbt)	inhibition of uptake at 100 μM (hASBT)
C[C@H](CCCOS(=O)(=O)O)[C@H]1CC[C@H]2[C@@H]3[C@H](O)C[C@H]4C[C@H](O)CC[C@]4(C)[C@H]3C[C@H](O)[C@]12C [5α-PZS]	significantly reduced ^3H-TCA transport activity in both skAsbt and hASBT	significantly reduced ^3H-TCA transport activity in both skAsbt and hASBT
C[C@H](CCCC(CO)COS(=O)(=O)O)[C@H]1CC[C@H]2[C@@H]3[C@H](O)C[C@H]4C[C@H](O)CC[C@]4(C)[C@H]3C[C@H](O)[C@]12C (stereo partly drawn) [5α-cyprinol sulfate]	significantly reduced ^3H-TCA transport activity in both skAsbt and hASBT	significantly reduced ^3H-TCA transport activity in both skAsbt and hASBT
C[C@H](CCC(=O)NCC(=O)O)[C@H]1CC[C@H]2[C@@H]3[C@H](O)C[C@@H]4C[C@H](O)CC[C@]4(C)[C@H]3CC[C@]12C [GCDCA]	significantly reduced ^3H-TCA transport activity in both skAsbt and hASBT	significantly reduced ^3H-TCA transport activity in both skAsbt and hASBT
C[C@H](CCC(=O)NCCS(=O)(=O)O)[C@H]1CC[C@H]2[C@@H]3[C@H](O)C[C@@H]4C[C@H](O)CC[C@]4(C)[C@H]3CC[C@]12C [TCDCA]	significantly reduced ^3H-TCA transport activity in both skAsbt and hASBT	significantly reduced ^3H-TCA transport activity in both skAsbt and hASBT
C[C@H](CCC(=O)NCCS(=O)(=O)O)[C@H]1CC[C@H]2[C@@H]3[C@@H](O)C[C@@H]4C[C@H](O)CC[C@]4(C)[C@H]3CC[C@]12C [TUDCA]	–	TUDCA effectively reduced ^3H-TCA transport activity in hASBT but not in skAsbt
O=C1OC(c2ccc(O)c(S(=O)(=O)O)c2)(c2ccc(O)c(S(=O)(=O)O)c2)c2c(Br)c(Br)c(Br)c(Br)c21 [bromosulfophtalein]	bromosulfophtalein significantly inhibited both transporters	bromosulfophtalein significantly inhibited both transporters
C[C@H](CCC(=O)NCCS(=O)(=O)O)[C@H]1CC[C@H]2[C@@H]3CC[C@@H]4C[C@H](OS(=O)(=O)O)CC[C@]4(C)[C@H]3CC[C@]12C [taurolithocholic acid-3-sulfate]	significantly reduced ^3H-TCA transport activity in both skAsbt and hASBT	–
C[C@H](CCC(=O)NCCS(=O)(=O)O)[C@H]1CC[C@H]2[C@@H]3CC[C@@H]4C[C@H](O)CC[C@]4(C)[C@H]3CC[C@]12C [taurolithocholic acid]	significantly reduced ^3H-TCA transport activity in both skAsbt and hASBT	significantly reduced ^3H-TCA transport activity in both skAsbt and hASBT
